Source: the supplement of paper PMC10307832

What was measured:
Assay in all cases: relative viability (nuclei count vs DMSO), 5 days (fraction); higher = more cells survive
[1] = compound: OCc1c[nH]c2ccccc12 [Indole-3-carbinol] + CC(C)C[C@H](NC(=O)[C@H](Cc1ccccc1)NC(=O)c1cnccn1)B(O)O [Bortezomib] (partner 0.002 µM)
Procedure, shortened: (§1)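 One day after seeding in 1536-well plates, lung cancer cell lines were dosed by pin tool. Dosing was either single-drug or a fixed anchor-drug dose plus five library-drug doses (not always all listed) in √10 steps. After 5 days, nuclei were stained in one fix-and-stain step and counted on 4× images, and relative viability is the nuclei count of treated wells over that of vehicle wells, given as the median of duplicate plates.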

[2] = compound: OCc1c[nH]c2ccccc12 [Indole-3-carbinol] + N=C(N)NC(=N)NCCc1ccccc1 [Phenformin] (partner 250 µM)
Procedure, shortened: as §1

[3] = compound: OCc1c[nH]c2ccccc12 [Indole-3-carbinol] + Nc1nc2[nH]cc(CCc3ccc(C(=O)N[C@@H](CCC(=O)O)C(=O)O)cc3)c2c(=O)[nH]1 [Pemetrexed] (partner 0.2 µM)
Procedure, shortened: as §1

[4] = compound: OCc1c[nH]c2ccccc12 [Indole-3-carbinol] + Cc1cc(Nc2cc(N3CCN(C)CC3)nc(Sc3ccc(NC(=O)C4CC4)cc3)n2)n[nH]1 [Tozasertib] (partner 0.1 µM)
Procedure, shortened: as §1

[5] = compound: OCc1c[nH]c2ccccc12 [Indole-3-carbinol] + C[C@]1(O)C[C@@H](c2nc(-c3ccc4ccc(-c5ccccc5)nc4c3)c3c(N)nccn32)C1 [Linsitinib] (partner 1 µM)
Procedure, shortened: as §1

Row | Cell Line | relative viability ([1]; first compound 0.253 µM) | relative viability ([1]; first compound 0.8 µM) | relative viability ([1]; first compound 2.53 µM) | relative viability ([1]; first compound 8 µM) | relative viability ([2]; first compound 0.253 µM) | relative viability ([2]; first compound 0.8 µM) | relative viability ([2]; first compound 2.53 µM) | relative viability ([2]; first compound 8 µM) | relative viability ([3]; first compound 0.253 µM) | relative viability ([3]; first compound 0.8 µM) | relative viability ([3]; first compound 2.53 µM) | relative viability ([3]; first compound 8 µM) | relative viability ([4]; first compound 0.253 µM) | relative viability ([4]; first compound 0.8 µM) | relative viability ([4]; first compound 2.53 µM) | relative viability ([4]; first compound 8 µM) | relative viability ([5]; first compound 0.253 µM) | relative viability ([5]; first compound 0.8 µM) | relative viability ([5]; first compound 2.53 µM) | relative viability ([5]; first compound 8 µM)
1 | ChaGo-K-1 | 0.871 | 0.988 | 0.896 | 1.06 | 0.479 | 0.475 | 0.551 | 0.443 | 0.258 | 0.258 | 0.27 | 0.257 | 0.218 | 0.219 | 0.231 | 0.211 |  |  |  | 
2 | NCI-H2342 |  |  |  |  | 0.617 | 0.608 | 0.572 | 0.516 | 0.757 | 0.738 | 0.751 | 0.742 | 0.516 | 0.575 | 0.453 | 0.405 |  |  |  | 
3 | SK-MES-1 |  |  |  |  | 0.689 | 0.733 | 0.693 | 0.61 | 0.926 | 1.01 | 0.927 | 0.939 | 0.904 | 1.04 | 0.932 | 0.907 | 1.12 | 1.13 | 1.08 | 1.07
4 | LCLC-97TM1 | 0.651 | 0.686 | 0.778 | 0.447 | 0.477 | 0.435 | 0.425 | 0.443 | 0.167 | 0.197 | 0.185 | 0.154 | 0.324 | 0.299 | 0.235 | 0.251 | 0.163 | 0.159 | 0.178 | 0.174
5 | NCI-H2170 |  |  |  |  | 0.451 | 0.385 | 0.432 | 0.418 | 0.286 | 0.24 | 0.292 | 0.273 | 0.703 | 0.712 | 0.79 | 0.717 |  |  |  | 
6 | NCI-H1993 | 1.09 | 1.38 | 1.14 | 1.17 | 0.516 | 0.523 | 0.516 | 0.549 | 0.59 | 0.69 | 0.548 | 0.567 | 0.614 | 0.629 | 0.579 | 0.562 | 0.692 | 0.793 | 0.815 | 0.667
7 | NCI-H460 | 1.14 | 1.14 | 1.11 | 1.03 | 0.535 | 0.482 | 0.53 | 0.498 | 0.0608 | 0.0603 | 0.063 | 0.0679 | 0.426 | 0.385 | 0.532 | 0.443 | 0.773 | 0.875 | 0.713 | 0.689
8 | NCI-H1975 | 0.409 | 0.328 | 0.436 | 0.365 | 0.391 | 0.413 | 0.419 | 0.417 | 0.288 | 0.294 | 0.293 | 0.311 | 0.651 | 1.03 | 0.797 | 0.88 | 0.812 | 1.05 | 0.964 | 0.954
9 | RERF-LC-KJ | 1.19 | 1.08 | 1.13 | 1.04 | 0.392 | 0.415 | 0.428 | 0.401 | 0.47 | 0.461 | 0.482 | 0.466 | 0.441 | 0.518 | 0.546 | 0.509 | 0.961 | 0.943 | 0.868 | 0.825
10 | NCI-H322M | 1.18 | 1.25 | 1.3 | 1.07 | 0.685 | 0.764 | 0.746 | 0.761 | 0.562 | 0.685 | 0.546 | 0.636 | 0.476 | 0.465 | 0.458 | 0.472 | 0.9 | 0.899 | 0.974 | 0.839
11 | NCI-H1651 | 0.917 | 0.938 | 0.98 | 0.874 | 0.287 | 0.349 | 0.315 | 0.424 | 0.576 | 0.539 | 0.686 | 0.605 | 0.723 | 0.922 | 0.834 | 0.614 | 0.873 | 1.11 | 1.06 | 0.895
12 | ABC-1 | 0.297 | 0.292 | 0.324 | 0.33 | 0.254 | 0.238 | 0.265 | 0.259 |  |  |  |  | 0.186 | 0.214 | 0.164 | 0.158 | 0.931 | 1.04 | 0.82 | 0.706
13 | NCI-H1792 | 0.965 | 0.89 | 1.03 | 0.934 | 0.191 | 0.26 |  | 0.194 | 0.984 | 0.993 | 0.704 | 0.858 |  |  |  |  | 0.499 | 0.37 | 0.506 | 0.47
14 | NCI-H727 | 0.872 | 0.842 | 0.897 | 0.828 | 0.532 | 0.502 | 0.458 | 0.673 |  |  |  |  | 0.512 | 0.73 | 0.599 | 0.554 | 0.178 | 0.31 | 0.268 | 0.283
15 | NCI-H1944 |  |  |  |  | 0.202 | 0.195 | 0.202 | 0.199 | 0.663 | 0.539 | 0.649 | 0.641 | 0.245 | 0.241 | 0.264 | 0.246 | 1.27 | 1.1 | 1.17 | 1.17
16 | NCI-H1703 | 0.274 | 0.389 | 0.358 | 0.453 |  |  |  |  |  |  |  |  |  |  |  |  | 0.786 | 0.413 | 0.665 | 0.636
17 | NCI-H1395 |  |  |  |  | 0.434 | 0.405 | 0.432 | 0.457 | 0.848 | 0.868 | 0.78 | 0.845 | 0.705 | 0.77 | 0.734 | 0.758 | 1.04 | 0.974 | 1.02 | 1.14
18 | NCI-H1793 |  |  |  |  | 0.438 | 0.409 | 0.499 | 0.339 | 0.934 | 0.773 | 1.03 | 0.761 | 0.332 | 0.389 | 0.339 | 0.395 | 0.932 | 0.898 | 1.08 | 0.927
19 | NCI-H522 |  |  |  |  | 0.621 | 0.661 | 0.724 | 0.671 | 0.979 | 1.12 | 1.08 | 1.04 | 0.63 | 0.525 | 0.567 | 0.538 |  |  |  | 
20 | SW 900 |  |  |  |  | 0.81 | 0.634 | 0.576 | 0.455 | 0.49 | 0.443 | 0.519 | 0.495 | 0.548 | 0.726 | 0.616 | 0.548 |  |  |  | 
